Source: patent publication US20030125283A1, “Therapy of proliferative disorders by direct irradiation of cell nuclei with tritiated nuclear targetting agents” (priority 2002, published 2003)

What was measured:
[1] = tested on: 4047 colon cancer cells, BT-20 and MCF-7 breast cancer cell lines; assay: Killing of tumor cells in vitro, cell counts and trypan blue viability; format: cell-based, rat (4047), human (BT-20
Method: In-vitro experiments were performed using cultured 4047 colon cancer cells as described in Gatenby, R A and Taylor D D (1990) Cancer Res. 50: 7997-8001. 4047 cells (2×10^4) were placed in each well of a 6-well plate and incubated overnight in 1 ml of RPMI-1640 media with 10% fetal bovine serum (FBS). The cells were divided into 4 groups as follows:
Group 4: incubated in unlabelled thymidine at concentrations 1, 2, 3, and 4 mM (so that concentration of thymidine was identical to that of the labeled thymidine in Group 3).
Each group was incubated for 24 hours and then washed 3 times in sterile physiologic saline (PBS). One milliliter of unlabelled media was added and the cells incubated for an additional 48 hours. Subsequently, the cells were washed with PBS, lifted with trypsin, and counted with a hematocytometer. Percent cell viability was determined by exclusion of trypan blue. All measurements were performed in triplicate. Once a dose-response curve was established in the 4047 cell line, identical experiments were conducted with the BT-20 and MCF-7 breast cancer cell lines.

BT-20 tumor xenografts = assay: Reduction in tumor volume in the half-life study (Example 7); format: in vivo, Nu/Nu female nude mice; details: each treatment subgroup, intratumoral 4 to 50 μCi/g tumor
Method: BT-20 tumor cells (10 million cells in 0.2 ml PBS) are inoculated into the right flank of each mouse as in Example 4 above. The tumors are grown to volumes of 300-500 mm^3 over the course of 3-4 weeks.
After tumors in all mice have reached the required 300-500 mm^3 volume, each group of 60 is divided into ten subgroups of six animals each.
Reduction in tumor volume is estimated as in Example 4 for each treatment subgroup over the course of the experiment. The data is analyzed by calculating the percentage of tumor reduction as in Example 4. The error in this measurement is determined from the measured standard deviation and the standard formula for calculating the error for a ratio given above in Equation 1. Systemic toxicity is not directly measured, but is monitored as described above in Example 4.

[2] = tested on: Human BT-20 breast cancer tumors; assay: Preliminary in vivo dose-response curve, single intratumoral injections (Example 8); set-up: species or system Nu/Nu female nude mice; details: single intratumoral injection; theoretical
Text: Six experimental groups of 18 4-6 week old Nu/Nu female nude mice (Charles River Laboratory, Wilmington, Mass.) are used. In each of the six groups an additional group of 6 mice serves as an uninoculated control. Thus the total number of experimental mice is 108 and total number of uninoculated control mice is 36.
Each experimental group is then divided into two subgroups: one treatment subgroup of 12 mice and one untreated (but inoculated) control subgroup of six mice. […] Because the tumors have variable growth rates, subgroups are chosen such that the mean tumor volume and standard deviation are similar for each subgroup. […]
The mice are monitored daily and the tumors measured daily by microcaliper for a minimum of 3 weeks or until tumor re-growth begins. Tumor volumes are calculated as in Example 2. Three daily tumor volumes are measured for the first group so that the error in the volume measurement can be determined as in Example 4. The mean volumes and standard deviations are calculated and growth rate curves are monitored during the experiment. The data are expressed as percent difference of the tumor volume at any given time point to its pre-injection volume.
Tumor volume data is analyzed as described above in the in Example 4 by calculating percent tumor reduction and initial tumor volume. Systemic toxicity is not directly measured, but is monitored as described above in Example 4. […]

[3] = tested on: BT20 human breast cancer tumors; assay: Efficacy of a multiple dose regimen, intratumoral versus i.v. (Example 9); format: in vivo, female nude mice
Method: To accomplish this, the superposition method of Sharget and Yu, supra, is used to extend the two compartment pharmacokinetic model presented in Example 6 from the single dose to the multidose case. […] Using the superposition method, the maximum and minimum of the multi-dose regimen can be averaged together to give an estimate of the mean concentration in the tumor during multiple injections (Sharget and Yu, supra).
This dose regimen is tested experimentally as follows.
60 4-6 weeks old female nude mice in 2 groups of 30 mice are used. Each group of 30 mice is further divided into two subgroups (10 control mice and 20 treatment mice). As before, the treatment mice will be divided into subgroups that consist of similar distribution of tumor volumes. In each treatment subgroup, 10×10^6 BT20 human breast cancer cells are inoculated subcutaneously in flanks of the mice as in Example 4. […] Tumors are grown to 300-500 mm^3 in volume.
The mice from one treatment subgroup receive an intratumoral injection of 16 μCi/20 μl normal saline (a dose of 32 μCi/gram of tumor). The dose is repeated every 7 days for a total of 3 doses.

[4] = mouse, in vivo
Method: In the treatment and control groups, 10×10^6 BT-20 human breast cancer cells are inoculated subcutaneously into the flanks of the mice. Animal weights are recorded daily and animals are closely monitored for signs of illness. Approximate tumor volumes are measured every other day using calipers to measure the height (H), width (W), and length (L) of each tumor. Tumor volumes are calculated according to the formula for volume of an ellipsoid V=πHWL/6. Tumors grow to 300-500 mm^3 in approximately 3-4 weeks after inoculation. A set of 6 measurements per day is made on a single tumor in the control group on one day of each week to determine the standard deviation versus volume in the volume measurements.
Tumor growth is monitored for a total of 4 weeks, whereupon the mice are sacrificed and the tumors and other tissue are harvested.
Lines are drawn along the anterior-posterior length of the harvested tumors. In addition, the top, left and right of the harvested tumors is marked. […] A portion of the sample in is placed in Hionic-Fluor LSC cocktail and the radioactivity counted in a scintillation counter. […]
Ten to fifteen microliters of the dissolved tissue or is spotted on a silica gel TLC plate, and the plate is placed in a chromatography chamber containing ˜200 ml of eluant so the dissolved tissue sample is just above the eluant surface. […] The radioactivity is counted in the scintillation counter. […]

[5] = Caro, supra; cited from earlier work

**Q.** With `Cc1cn([C@H]2C[C@H](O)[C@@H](CO)O2)c(=O)[nH]c1=O` [Unlabelled thymidine, thymidine, reference compound] as the molecule, how does the “effect on tumor growth” value ([1]; unlabelled thymidine 1, 2, 3, and 4 mM, 24 hours incubation, then 48 hours in unlabelled media) read?
**A.** Its value is “no effect on tumor growth”.

**Q.** Which antitumor effect ([1]; 0.1 μCi/ml (concentration used only with 4047 cells)) does the source give for `Cc1cn([C@H]2C[C@H](O)[C@@H](CO)O2)c(=O)[nH]c1=O` [^3H-thymidine] here?
**A.** The antitumor effect was “significant antitumor effect”.

**Q.** And the “viable tumor cells identified” value ([1]; populations exposed to 1.0 μCi/ml or greater, in most experiments)?
**A.** The value was “few viable tumor cells”.

**Q.** What about the tumor volume (BT-20 tumor xenografts) of the same molecule?
**A.** The tumor volume was “significant reduction in tumor volume”.

**Q.** And the “ED90, minimal effective dose for eradicating tumors in 90% of the treated mice” value [2]?
**A.** The value was 16 μCi/g tumor.

**Q.** And the “r, tumor regression” value ([3]; i.v. injection 16 μCi (~800 μCi/kg body wt.) once a week for three weeks, after three doses)?
**A.** Its value is “approximately 0.8”.

**Q.** What about the “r, tumor regression” value ([3]; intratumoral 16 μCi/20 μl saline (32 μCi/gram of tumor) every 7 days, 3 doses) of the same molecule?
**A.** The value was “approximately zero”.

**Q.** And the “share of injected dose retained in the tumor” value [4]?
**A.** The value was “about 10%”.

**Q.** With `[3H]O[3H]` [^3H-water, reference compound] as the molecule, how does the cytotoxicity ([1]; 0.1-3.0 μCi/ml media, 24 hours incubation, then 48 hours in unlabelled media, ^3H-water effect particularly above 1 μCi/ml, ^3H-thymidine compared with ^3H-water at each dose (p<<0.01)) read?
**A.** The cytotoxicity was “slight cytotoxicity”.

**Q.** For `[3H]` [tritium], which effective biological half-life [5] is on record?
**A.** Its effective biological half-life is “approximately 12 days”.
